According to patent publication US20230295087A1, “AGONISTS OF ROR GAMMAt” (BRISTOL-MYERS SQUIBB COMPANY, priority 2019, published 2023):

Target: T1, human RORgT (Homo sapiens, UniProt P51449)
T1 construct: expressed in transfected cells
T1 sequence (P51449 267-516): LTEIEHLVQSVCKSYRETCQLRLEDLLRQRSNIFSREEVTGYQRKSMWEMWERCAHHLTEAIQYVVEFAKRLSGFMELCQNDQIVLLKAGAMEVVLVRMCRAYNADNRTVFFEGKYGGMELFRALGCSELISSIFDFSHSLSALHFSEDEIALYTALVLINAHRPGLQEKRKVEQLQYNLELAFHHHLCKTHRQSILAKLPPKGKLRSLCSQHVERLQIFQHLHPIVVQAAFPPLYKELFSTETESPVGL
Assay: RORgT Gal4 Luciferase Reporter Gene Assay
Format: cell-based
Settings: engineered Jurkat cells overexpressing RORgT (LBD or full length) fused with Gal4 Luc reporter; 18 hours at 37° C.; luminescence
Method in brief: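 Jurkat cells expressing Gal4 Luc with either RORgT LBD (aa267-516) or full-length human RORgT, 10,000 cells/well, treated with compound (40 µM to 0.67 nM final, 3-fold dilutions) for 18 h at 37° C. Steady-Glo luminescence read; inhibition of constitutive activity as % signal-window reduction relative to a control compound.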

Compound	EC50 [nM]
O=C(CN1CCS(=O)(=O)CC1)N1CC[C@@]2(S(=O)(=O)c3ccc(F)cc3)c3ccc(OCc4cc(Cl)ccc4Cl)cc3CC[C@@H]12 [Example 197, 4-{2-[(3aR,9bR)-7-[(2,5-dichlorophenyl)methoxy] -9b-(4-fluorobenzenesulfonyl)-1H,2H,3H,3aH,4H,5H,9bH-benzo[e]indol-3-yl]-2-oxoethyl}-1λ^6-thiomorpholine-1,1-dione]	49
O=C(C1CCS(=O)(=O)C1)N1CC[C@@]2(S(=O)(=O)c3ccc(F)cc3)c3ccc(OCc4ccc(F)cc4Cl)cc3CC[C@@H]12 (stereo partly drawn) [Example 201, 3-[(3aR,9bR)-7-[(2-chloro-4-fluorophenyl)methoxy]-9b-(4-fluorobenzenesulfonyl)-1H,2H,3H,3aH,4H,5H,9bH-benzo[e]indole-3-carbonyl]-1λ^6-thiolane-1,1-dione]	40
COC(=O)[C@H]1CC[C@H](C(=O)N2CC[C@@]3(S(=O)(=O)c4ccc(F)cc4)c4ccc(OCc5cc(Cl)ccc5Cl)cc4CC[C@@H]23)CC1 [Example 203, methyl (1r,4r)-4-[(3aR,9bR)-7-[(2,5-dichlorophenyl)methoxy] -9b-(4-fluorobenzenesulfonyl)-1H,2H,3H,3aH,4H,5H,9bH-benzo[e]indole-3-carbonyl] cyclohexane-1-carboxylate]	111
CN1CCC(C(=O)N2CC[C@@]3(S(=O)(=O)c4ccc(F)cc4)c4ccc(OCc5cc(Cl)ccc5Cl)cc4CC[C@@H]23)CC1 [Example 204, 4-[(3aR,9bR)-7-[(2,5-dichlorophenyl)methoxy]-9b-(4-fluorobenzenesulfonyl)-1H,2H,3H,3aH,4H,5H,9bH-benzo[e]indole-3-carbonyl]-1-methylpiperidine]	76
CN1CCC(C(=O)N2CC[C@@]3(S(=O)(=O)c4ccc(F)cc4)c4ccc(OCc5ccc(F)cc5Cl)cc4CC[C@@H]23)CC1 [Example 206, 4-[(3aR,9bR)-7-[(2-chloro-4-fluorophenyl)methoxy]-9b-(4-fluorobenzenesulfonyl)-1H,2H,3H,3aH,4H,5H,9bH-benzo[e]indole-3-carbonyl]-1-methylpiperidine]	216
CS(=O)(=O)CC(=O)N1CC[C@@]2(S(=O)(=O)c3ccc(F)cc3)c3ccc(OCc4cc(Cl)ccc4Cl)cc3CC[C@@H]12 [Example 208, 1-[(3 aR,9bR)-7-[(2,5-dichlorophenyl)methoxy] -9b-(4-fluorobenzenesulfonyl)-1H,2H,3H,3aH,4H,5H,9bH-benzo[e]indol-3-yl]-2-methanesulfonylethan-1-one]	162
NS(=O)(=O)CC(=O)N1CC[C@@]2(S(=O)(=O)c3ccc(F)cc3)c3ccc(OCc4cc(Cl)ccc4Cl)cc3CC[C@@H]12 [Example 209, 2-[(3aR,9bR)-7-[(2,5-dichlorophenyl)methoxy]-9b-(4-fluorobenzenesulfonyl)-1H,2H,3H,3aH,4H,5H,9bH-benzo[e]indol-3-yl]-2-oxoethane-1-sulfonamide]	124
NS(=O)(=O)CC(=O)N1CC[C@@]2(S(=O)(=O)c3ccc(F)cc3)c3ccc(OCc4cc(F)c(F)cc4Cl)cc3CC[C@@H]12 [Example 211, 2-[(3aR,9bR)-7-[(2-chloro-4,5-difluorophenyl)methoxy]-9b-(4-fluorobenzenesulfonyl)-1H,2H,3H,3aH,4H,5H,9bH-benzo[e]indol-3-yl]-2-oxoethane-1-sulfonamide]	110
CN1CCC(C(=O)N2CC[C@@]3(S(=O)(=O)c4ccc(F)cc4)c4ccc(OCc5cc(F)c(F)cc5Cl)cc4CC[C@@H]23)CC1 [Example 212, 4-[(3aR,9bR)-7-[(2-chloro-4,5-difluorophenyl)methoxy]-9b-(4-fluorobenzenesulfonyl)-1H,2H,3H,3aH,4H,5H,9bH-benzo[e]indole-3-carbonyl]-1-methylpiperidine]	160
CN1CCC(C(=O)N2CC[C@@]3(S(=O)(=O)c4ccc(F)cc4)c4ccc(OCc5c(F)cc(F)cc5Cl)cc4CC[C@@H]23)CC1 [Example 215, 4-[(3aR,9bR)-7-[(2-chloro-4,6-difluorophenyl)methoxy]-9b-(4-fluorobenzenesulfonyl)-1H,2H,3H,3aH,4H,5H,9bH-benzo[e]indole-3-carbonyl]-1-methylpiperidine]	157
CS(=O)(=O)CC(=O)N1CC[C@@]2(S(=O)(=O)c3ccc(F)cc3)c3ccc(OCc4cc(F)c(F)cc4Cl)cc3CC[C@@H]12 [Example 216, 1-[(3aR,9bR)-7-[(2-chloro-4,5-difluorophenyl)methoxy]-9b-(4-fluorobenzenesulfonyl)-1H,2H,3H,3aH,4H,5H,9bH-benzo[e]indol-3-yl]-2-methanesulfonylethan-1-one]	266
CS(=O)(=O)CC(=O)N1CC[C@@]2(S(=O)(=O)c3ccc(F)cc3)c3ccc(OCc4c(F)cc(F)cc4Cl)cc3CC[C@@H]12 [Example 217, 1-[(3aR,9bR)-7-[(2-chloro-4,6-difluorophenyl)methoxy]-9b-(4-fluorobenzenesulfonyl)-1H,2H,3H,3aH,4H,5H,9bH-benzo[e]indol-3-yl]-2-methanesulfonylethan-1-one]	168

Stronger by EC50, values ahead:

EC50 [nM]	Compound
37	CC(=O)N1CCC(C(=O)N2CC[C@@]3(S(=O)(=O)c4ccc(F)cc4)c4ccc(OCc5cc(Cl)ccc5Cl)cc4CC[C@@H]23)CC1 [Example 196, 1-{4-[(3aR,9bR)-7-[(2,5-dichlorophenyl)methoxy] -9b-(4-fluorobenzenesulfonyl)-1H,2H,3H,3aH,4H,5H,9bH-benzo[e]indole-3-carbonyl]piperidin-1-yl}ethan-1-one]
19	NC(=O)N1CCC(C(=O)N2CC[C@@]3(S(=O)(=O)c4ccc(F)cc4)c4ccc(OCc5ccc(F)cc5Cl)cc4CC[C@@H]23)CC1 [Example 198, 4-[(3aR,9bR)-7-[(2-chloro-4-fluorophenyl)methoxy]-9b-(4-fluorobenzenesulfonyl)-1H,2H,3H,3aH,4H,5H,9bH-benzo[e]indole-3-carbonyl] piperidine-1-carboxamide]
8.7	O=C(C1CCS(=O)(=O)C1)N1CC[C@@]2(S(=O)(=O)c3ccc(F)cc3)c3ccc(OCc4cc(Cl)ccc4Cl)cc3CC[C@@H]12 (stereo partly drawn) [Example 199, 3-[(3aR,9bR)-7-[(2,5-dichlorophenyl)methoxy]-9b-(4-fluorobenzenesulfonyl)-1H,2H,3H,3aH,4H,5H,9bH-benzo[e]indole-3-carbonyl]-1λ^6-thiolane-1,1-dione]
7.5	O=C(C1CCS(=O)(=O)CC1)N1CC[C@@]2(S(=O)(=O)c3ccc(F)cc3)c3ccc(OCc4cc(Cl)ccc4Cl)cc3CC[C@@H]12 [Example 200, 4-[(3aR,9bR)-7-[(2,5-dichlorophenyl)methoxy]-9b-(4-fluorobenzenesulfonyl)-1H,2H,3H,3aH,4H,5H,9bH-benzo[e]indole-3-carbonyl]-1λ^6-thiane-1,1-dione]
15	NC(=O)N1CCC(C(=O)N2CC[C@@]3(S(=O)(=O)c4ccc(F)cc4)c4ccc(OCc5cc(Cl)ccc5Cl)cc4CC[C@@H]23)CC1 [Example 202, 4-[(3aR,9bR)-7-[(2,5-dichlorophenyl)methoxy]-9b-(4-fluorobenzenesulfonyl)-1H,2H,3H,3aH,4H,5H,9bH-benzo[e]indole-3-carbony1]piperidine-1-carboxamide]
9.5	O=C(O)[C@H]1CC[C@H](C(=O)N2CC[C@@]3(S(=O)(=O)c4ccc(F)cc4)c4ccc(OCc5cc(Cl)ccc5Cl)cc4CC[C@@H]23)CC1 [Example 205, (1r,4r)-4-[(3aR,9bR)-7-[(2,5-dichlorophenyl)methoxy] -9b-(4-fluorobenzenesulfonyl)-1H,2H,3H,3aH,4H,5H,9bH-benzo[e]indole-3-carbonyl]cyclohexane-1-carboxylic acid]
28	CC(=O)N1CCC(C(=O)N2CC[C@@]3(S(=O)(=O)c4ccc(F)cc4)c4ccc(OCc5ccc(F)cc5Cl)cc4CC[C@@H]23)CC1 [Example 207, 1-{4-[(3aR,9bR)-7-[(2-chloro-4-fluorophenyl)methoxy]-9b-(4-fluorobenzenesulfonyl)-1H,2H,3H,3aH,4H,5H,9bH-benzo[e]indole-3-carbonyl]piperidin-1-yl}ethan-1-one]
9.9	NC(=O)N1CCC(C(=O)N2CC[C@@]3(S(=O)(=O)c4ccc(F)cc4)c4ccc(OCc5cc(F)c(F)cc5Cl)cc4CC[C@@H]23)CC1 [Example 210, 4-[(3aR,9bR)-7-[(2-chloro-4,5-difluorophenyl)methoxy]-9b-(4-fluorobenzenesulfonyl)-1H,2H,3H,3aH,4H,5H,9bH-benzo[e]indole-3-carbonyl] piperidine-1-carboxamide]
4.9	O=C(C1CCS(=O)(=O)C1)N1CC[C@@]2(S(=O)(=O)c3ccc(F)cc3)c3ccc(OCc4cc(F)c(F)cc4Cl)cc3CC[C@@H]12 (stereo partly drawn) [Example 213, 3-[(3aR,9bR)-7-[(2-chloro-4,5-difluorophenyl)methoxy]-9b-(4-fluorobenzenesulfonyl)-1H,2H,3H,3aH,4H,5H,9bH-benzo[e]indole-3-carbonyl]-1λ^6-thiolane-1,1-dione]
5.3	CC(=O)N1CCC(C(=O)N2CC[C@@]3(S(=O)(=O)c4ccc(F)cc4)c4ccc(OCc5c(F)cc(F)cc5Cl)cc4CC[C@@H]23)CC1 [Example 214, 1-{4-[(3aR,9bR)-7-[(2-chloro-4,6-difluorophenyl)methoxy]-9b-(4-fluorobenzenesulfonyl)-1H,2H,3H,3aH,4H,5H,9bH-benzo[e]indole-3-carbonyl]piperidin-1-yl}ethan-1-one]
12	O=C(C1CCS(=O)(=O)C1)N1CC[C@@]2(S(=O)(=O)c3ccc(F)cc3)c3ccc(OCc4c(F)cc(F)cc4Cl)cc3CC[C@@H]12 (stereo partly drawn) [Example 218, 3-[(3aR,9bR)-7-[(2-chloro-4,6-difluorophenyl)methoxy]-9b-(4-fluorobenzenesulfonyl)-1H,2H,3H,3aH,4H,5H,9bH-benzo[e]indole-3-carbonyl]-1λ^6-thiolane-1,1-dione]
